Measured values: patent publication US11578055B2, “Triazacyclododecansulfonamide (“TCD”)-based protein secretion inhibitors” (KEZAR LIFE SCIENCES, priority 2018, dated 2023)
Counter-ions that a name gives are not always drawn.

Key:
[1] = tested on: multiple myeloma cell line U266B1; assay: U266 Cell Viability Assay; assay type: cell-based, human; settings: Homo sapiens, U-266; 48 hr, U266; read-out: 48 hr U266 Viability Celltiter-Glo: Mean EC50
Procedure: (§1) The human multiple myeloma cell line U266B1 was cultured in RPMI 1640 media supplemented with 10% fetal bovine serum, 2 mM Glutamine, and 1× Penicillin/Streptomycin. Cells were plated in 384-well tissue culture plates and treated with compound dilutions in DMSO/media. Plates were incubated at 37° C., 5% CO2 for 48 hours. After 48 hours, Celltiter-Glo® (Promega) was added to each well and luciferase signal was quantified using Tecan Infinite M1000 Pro for cell viability determination.
For chemical structures that include one or more stereoisomers, but are illustrated without indicating stereochemistry, the assay data refers to a mixture of stereoisomers

[2] = In Vitro Microsome Stability Assay (human); assay type: in vitro ADME; settings: human, 30 min, NADPH
Procedure: (§2) Potassium phosphate (423 μL of a 0.1 M solution) was added to 8-strip deep well tubes followed by human, mouse, rat, or monkey microsomes (25 μL of a 20 mg/mL solution). The tubes were then placed on ice and the test article (2 μL of a 0.25 mM solution in DMSO) was added. The mixture was preincubated at 37° C. for 3 to 5 minutes (shaking at 150 rpm) then the reaction was initiated by adding 50 μL NADPH. An aliquot of samples (100 μL) were collected at 0 and 30 min and 200 μL of an acetonitrile mixture containing IS (compound 914) was added to quench the reaction. After centrifuging for 10 min at 4000 rpm, a mixed solution of the 20 μL of the supernatant (20 μL) plus 100 μL ACN/H2O (1:1) were injected for LC-MS/MS analysis. Liver microsome stability is assessed by the % remaining of compound at 30 min which is calculated using the following equation: [(AUCanalyteT=30/AUCIS)/(AUCanalyteT=0/AUCIS)]*100
(§3) For chemical structures that include one or more stereoisomers, but are illustrated without indicating stereochemistry, the assay data refers to a mixture of stereoisomers.

[3] = In Vitro Microsome Stability Assay (monkey); assay type: in vitro ADME; settings: monkey, 30 min, NADPH
Procedure: as §2, §3

[4] = tested on: full length TNFα (amino acids 1-233) fused to Gaussia Luciferase; assay: Dox Induced TNFα-FL-Gluc Assay; assay type: cell-based; settings: 24 hr, 293FRT/TO; read-out: 24 hr Dox Inducible TNFaFLGluc 293FRT/TO: Mean IC50
Description: (§4) FIp-In 293 T-REx™ cells were transfected with pcDNA™5/FRT/TO plasmid inserted with cDNA encoding Gaussia Luciferase fused to the 3′ end of cDNA encoding full length TNFα (amino acids 1-233). Transfected cells were selected for resistance to the selectable markers Hygromycin and Blasticidin to create a stable cell line that contained the TNFα-FL/Gaussia Luciferase cDNA insert whose expression was regulated under the T-REx™ system. The day before assay, cells were trypsinized and plated in 384-well tissue culture plates. The next day, compound dilutions in DMSO/media containing doxycycline were added to the wells and incubated at 37° C., 5% CO2.
as §3

[5] = In Vitro Microsome Stability Assay (rat); assay type: in vitro ADME; settings: rat, 30 min, NADPH
Procedure: as §2, §3

[6] = tested on: multiple myeloma cell line NCl-H929; assay: H929 Cell Viability Assay; assay type: cell-based, human; settings: Homo sapiens, NCI-H929, 48 h, H929, read-out: 48 hr H929 Viability Celltiter-Glo: Mean EC50
Procedure: as §1, with “NCl-H929” for “U266B1”, “cultured in Advanced RPMI 1640 media (Gibco®) supplemented with 6% fetal bovine serum, 2 mM Glutamine, and 1× Penicillin/Streptomycin. On the day of assay, cells were resuspended” for “cultured”, “Penicillin/Streptmycin and” for “Penicillin/Streptomycin. Cells were”
as §3

[7] = tested on: PD1 signal sequence plus 10 amino acids fused to Gaussia Luciferase (PD1-ss+10aa/Gaussia Luciferase); assay: Dox Induced PD1-ss-Gluc Assay; assay type: cell-based; settings: 24 hr, 293FRT/TO; read-out: 24 hr Dox Inducible PD1ssGluc 293FRT/TO: Mean IC50
Description: as §4, with “PD1 signal sequence plus 10 amino” for “full length TNFα (amino”, “(N-[…]-C) (SEQ ID NO: 1).” for “1-233).”, “PD1-ss+10aa/Gaussia” for “TNFα-FL/Gaussia”
as §3

[8] = In Vitro Microsome Stability Assay (mouse); assay type: in vitro ADME; settings: mouse, 30 min, NADPH
Procedure: as §2, §3

SMILES	EC50 [1] [µM]	Liver Microsome Stability-% Left after 30 min w/ NADPH (%) Human [2] [%]	Liver Microsome Stability-% Left after 30 min w/ NADPH (%) Monkey [3] [%]	IC50 [4] [µM]	Liver Microsome Stability-% Left after 30 min w/ NADPH (%) Rat [5] [%]	EC50 [6] [µM]	IC50 [7] [µM]	Liver Microsome Stability-% Left after 30 min w/ NADPH (%) Mouse [8] [%]
CN(C)c1ccc(S(=O)(=O)N2CCCN(CC3CCCCC3)CCCN(S(=O)(=O)N3CCCCC3)CC3(COC3)C2)cc1 [A17, 4-{[10-(cyclohexylmethyl)-14-(piperidine-1-sulfonyl)-2-oxa-6,10,14-triazaspiro[3.11]pentadecan-6-yl]sulfonyl}-N,N-dimethylaniline]	> 25	0.49	0.36	> 25	1.06	> 25	0.943	0.41
O=S(=O)(N1CCCCC1)N1CCCN(Cc2ccccc2)CCCN(S(=O)(=O)N2CCCCC2)CC2(CC2)C1 [A18, 9-benzyl-5,13-bis(piperidin-1-ylsulfonyl)-5,9,13-triazaspiro[2.11]tetradecane hydrochloride]	15.5	0.04	0.05	> 25	0.11	> 25	> 25	0.05
CN(C)c1ccc(S(=O)(=O)N2CCCN(CC3CCCCC3)CCCN(S(=O)(=O)N3CCCCC3)CC3(CC3)C2)cc1 [A19, 4-((9-(cyclohexylmethyl)-13-(piperidin-1-ylsulfonyl)-5,9,13-triazaspiro[2.11]tetradecan-5-yl)sulfonyl)-N,N-dimethylaniline hydrochloride]	21.9	0.05	0.08	> 25	0.1	> 25	0.326	0.24
CC1CCCCN1S(=O)(=O)N1CCCN(CC2CCCCC2)CCCN(S(=O)(=O)c2ccc(N(C)C)cc2)CC2(CC2)C1 (stereo not drawn) [A20, 4-{[9-(cyclohexylmethyl)-13-[(2-methylpiperidin-1-yl)sulfonyl]-5,9,13-triazaspiro[2.11]tetradecan-5-yl]sulfonyl}-N,N-dimethylaniline]	> 25	0.05	0.06	> 25	0.19	12.8	0.207	0.07
CC1CCCN(S(=O)(=O)N2CCCN(CC3CCCCC3)CCCN(S(=O)(=O)c3ccc(N(C)C)cc3)CC3(CC3)C2)C1 (stereo not drawn) [A21, 4-{[9-(cyclohexylmethyl)-13-[(3-methylpiperidin-1-yl)sulfonyl]-5,9,13-triazaspiro[2.11]tetradecan-5-yl]sulfonyl}-N,N-dimethylaniline]	> 25	0.14	0.11	10	0.62	8.29	0.184	1.77
CN(C)c1ccc(S(=O)(=O)N2CCCN(CC3CCCCC3)CCCN(S(=O)(=O)N3CCCC3)CC3(CC3)C2)cc1 [A23, 4-{[9-(cyclohexylmethyl)-13-(pyrrolidine-1-sulfonyl)-5,9,13-triazaspiro[2.11]tetradecan-5-yl]sulfonyl}-N,N-dimethylaniline]	> 25	0.04	0.03	> 25	0.13	> 25	0.759	0.17
